The supplement of paper PMC10307832

Columns and labels:
Assay in all cases: relative viability (nuclei count vs DMSO), 5 days (fraction); higher = more cells survive
[1] = compound: CN(C)C[C@@H]1CCn2cc(c3ccccc32)C2=C(C(=O)NC2=O)c2cn(c3ccccc23)CCO1 [Ruboxistaurin] + CS(=O)(=O)CCNCc1ccc(-c2ccc3ncnc(Nc4ccc(OCc5cccc(F)c5)c(Cl)c4)c3c2)o1 [Lapatinib] (partner 2 µM)
Outline: (§1)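 Lung cancer cell lines in 1536-well plates were dosed by pin tool the day after seeding, either with one drug alone or with a fixed anchor-drug dose plus five library-drug doses (not always all listed) in √10 steps. After 5 days, cells were fixed and their nuclei stained in one step (final 0.05% Triton X-100, 1% formaldehyde, 1 ug/ml Hoechst), then counted on 4× images. Relative viability is the nuclei count in treated wells divided by that in vehicle wells. Values are medians of duplicate plates.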

[2] = compound: CN(C)C[C@@H]1CCn2cc(c3ccccc32)C2=C(C(=O)NC2=O)c2cn(c3ccccc23)CCO1 [Ruboxistaurin] + N=C(N)NC(=N)NCCc1ccccc1 [Phenformin] (partner 250 µM)
Outline: as §1

[3] = compound: CN(C)C[C@@H]1CCn2cc(c3ccccc32)C2=C(C(=O)NC2=O)c2cn(c3ccccc23)CCO1 [Ruboxistaurin] + Nc1nc2[nH]cc(CCc3ccc(C(=O)N[C@@H](CCC(=O)O)C(=O)O)cc3)c2c(=O)[nH]1 [Pemetrexed] (partner 0.2 µM)
Outline: as §1

[4] = compound: CN(C)C[C@@H]1CCn2cc(c3ccccc32)C2=C(C(=O)NC2=O)c2cn(c3ccccc23)CCO1 [Ruboxistaurin] + O=C(c1cc(Cc2n[nH]c(=O)c3ccccc23)ccc1F)N1CCN(C(=O)C2CC2)CC1 [Olaparib] (partner 8 µM)
Outline: as §1

[5] = compound: CN(C)C[C@@H]1CCn2cc(c3ccccc32)C2=C(C(=O)NC2=O)c2cn(c3ccccc23)CCO1 [Ruboxistaurin] + CC(=O)c1c(C)c2cnc(Nc3ccc(N4CCNCC4)cn3)nc2n(C2CCCC2)c1=O [Palbociclib] (partner 0.5 µM)
Outline: as §1

Row | Cell Line | relative viability ([1]; first compound 0.08 µM) | relative viability ([1]; first compound 0.8 µM) | relative viability ([1]; first compound 2.53 µM) | relative viability ([1]; first compound 8 µM) | relative viability ([2]; first compound 0.08 µM) | relative viability ([2]; first compound 0.8 µM) | relative viability ([2]; first compound 2.53 µM) | relative viability ([2]; first compound 8 µM) | relative viability ([3]; first compound 0.08 µM) | relative viability ([3]; first compound 0.8 µM) | relative viability ([3]; first compound 2.53 µM) | relative viability ([3]; first compound 8 µM) | relative viability ([4]; first compound 0.08 µM) | relative viability ([4]; first compound 0.8 µM) | relative viability ([4]; first compound 2.53 µM) | relative viability ([4]; first compound 8 µM) | relative viability ([5]; first compound 0.08 µM) | relative viability ([5]; first compound 0.8 µM) | relative viability ([5]; first compound 2.53 µM) | relative viability ([5]; first compound 8 µM)
1 | 201T | 1.06 | 1 | 1.06 | 1.05 | 0.49 | 0.433 | 0.449 | 0.426 | 0.31 | 0.327 | 0.311 | 0.31 | 0.821 | 0.837 | 0.852 | 0.909 | 0.357 | 0.344 | 0.353 | 0.37
2 | A549 | 1.03 | 0.838 | 0.866 | 0.753 | 0.199 | 0.162 | 0.221 | 0.175 |  |  |  |  | 0.27 | 0.273 | 0.415 | 0.381 |  |  |  | 
3 | A-427 | 0.995 | 0.988 | 0.917 | 0.983 | 0.398 | 0.314 | 0.327 | 0.273 | 0.994 | 0.926 | 0.958 | 0.923 | 0.728 | 0.672 | 0.558 | 0.534 | 0.554 | 0.524 | 0.5 | 0.538
4 | ABC-1 | 1.48 | 1.01 | 1.06 | 1.47 | 0.252 | 0.245 | 0.182 | 0.233 |  |  |  |  | 1.27 | 0.81 | 1.03 | 1.15 | 0.953 | 0.724 | 0.968 | 1.05
5 | BEN | 0.803 | 0.617 | 0.708 | 0.564 | 0.26 | 0.292 | 0.248 | 0.245 | 0.801 | 0.695 | 0.716 | 0.528 | 1.31 | 0.903 | 1.34 | 0.888 | 0.415 | 0.453 | 0.522 | 0.495
6 | CAL-12T | 0.735 | 0.554 | 0.765 | 0.78 | 0.597 | 0.585 | 0.568 | 0.563 | 1.35 | 1.19 | 1.12 | 1.28 | 0.749 | 0.704 | 0.901 | 0.751 | 0.476 | 0.426 | 0.419 | 0.483
7 | COR-L23 | 1.23 | 0.914 | 1.09 | 1.08 | 0.408 | 0.41 | 0.519 | 0.493 | 0.193 | 0.182 | 0.204 | 0.192 | 0.409 | 0.377 | 0.387 | 0.326 | 0.261 | 0.267 | 0.313 | 0.372
8 | COR-L 105 | 0.335 | 0.385 | 0.365 | 0.341 | 0.599 | 0.436 | 0.446 | 0.4 | 1.3 | 0.912 | 1.05 | 1.26 | 0.802 | 0.597 | 0.707 | 0.677 | 0.418 | 0.389 | 0.411 | 0.416
9 | ChaGo-K-1 |  |  |  |  | 0.47 | 0.525 | 0.532 | 0.412 | 0.272 | 0.247 | 0.26 | 0.267 | 0.431 | 0.39 | 0.433 | 0.444 | 0.898 | 0.889 | 0.933 | 0.98
10 | EKVX | 0.2 | 0.19 | 0.216 | 0.188 | 0.249 | 0.221 | 0.234 | 0.26 | 0.413 | 0.401 | 0.373 | 0.393 | 0.923 | 0.692 | 0.929 | 0.861 | 0.414 | 0.318 | 0.424 | 0.321
11 | EMC-BAC-2 | 0.879 | 0.856 | 0.866 | 0.802 | 0.601 | 0.469 | 0.505 | 0.438 | 0.419 | 0.415 | 0.384 | 0.383 | 0.509 | 0.453 | 0.463 | 0.481 | 0.51 | 0.506 | 0.514 | 0.493
12 | EPLC-272H | 0.966 | 0.916 | 0.933 | 0.962 | 0.338 | 0.301 | 0.297 | 0.349 | 0.32 | 0.359 | 0.352 | 0.325 | 0.846 | 0.71 | 0.918 | 0.437 | 0.312 | 0.352 | 0.285 | 0.317
13 | H3255 | 0.221 | 0.217 | 0.27 | 0.221 | 0.354 | 0.326 | 0.345 | 0.352 | 0.595 | 0.556 | 0.614 | 0.534 | 0.613 | 0.574 | 0.592 | 0.655 | 0.318 | 0.336 | 0.329 | 0.364
14 | HARA | 0.803 | 0.672 | 0.712 | 0.57 | 0.493 | 0.404 | 0.535 | 0.475 | 0.262 | 0.297 | 0.236 | 0.248 | 1.01 | 0.895 | 0.819 | 0.538 | 0.214 | 0.263 | 0.266 | 0.326
15 | HCC-15 | 0.879 | 0.88 | 0.879 | 0.947 | 0.513 | 0.46 | 0.486 | 0.504 | 0.224 | 0.207 | 0.221 | 0.2 | 0.792 | 0.651 | 0.777 | 0.867 | 0.748 | 0.694 | 0.734 | 0.745
16 | HCC-44 | 0.982 | 1 | 1.03 | 1.1 | 0.204 | 0.193 | 0.185 | 0.19 | 0.666 | 0.556 | 0.642 | 0.638 | 0.978 | 0.942 | 0.983 | 1.04 | 0.986 | 1 | 0.953 | 0.968
